Consider seven compounds from patent US9278996B2, “Dolastatin-10 derivative, method of producing the same and anticancer drug composition containing the same” (CELLTRION, INC., priority 2012, dated 2016).

What all share (assay type): cell-based
One test deals with breast cancer (BT-474). In words: Anticancer activity assay (WST-8 cell growth), BT-474. The settings on record: Homo sapiens, read-out: IC50 (nM) BT-474. In a few lines:
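Cells seeded at 2˜3×10^3 per well and grown with compound at 37° C, 5% CO2 for 4 days. Monolayer growth read with WST-8; IC50 taken as concentration giving 50% of control OD.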
Background: Tetrazolium assays rely on reduction of a dye to a coloured formazan, in cell work by metabolically active cells.

The test system of test [1] is human epithelial cancer (A-431). Kind of test: Anticancer activity assay (WST-8 cell growth), A-431. The method, then: (§1) The compounds of the present invention were assayed for inhibitory activity against 7 cancer cell lines as breast cancer (BT-474), human epithelial cancer (A-431), non-small cell lung cancer (NCI-H460), colon cancer (HT-29), colon cancer (SW-620), breast cancer (MDA-MB-231) and breast cancer (MCF-7).
(§2) Briefly, a suspension of each cancer cell line was serially diluted, and plated at a density of 2˜3×10^3 cells/well into 96-well microplates, followed by incubation at 37° C. for 4 day in a 5% CO2 atmosphere. Cell growth in a monolayer was measured using WST-8 reagemt (Dojindo, Japan).
(§3) IC50 values of the compounds against the cancer cell lines were calculated as compound concentrations at which the cells were grown by 50% OD of the control.

In test [2] the test system is non-small cell lung cancer (NCI-H460). Kind of test: Anticancer activity assay (WST-8 cell growth), NCI-H460. The conditions noted are these: read-out: IC50 (nM) NCI-H460. The method, then: as §1, §2, §3
The subject of the next test is colon cancer (HT-29). In words: Anticancer activity assay (WST-8 cell growth), HT-29. The conditions noted are these: read-out: IC50 (nM) HT-29. The method, then:
as §1, §2, §3

In a further test the test system is colon cancer (SW-620). Kind of test: Anticancer activity assay (WST-8 cell growth), SW-620. The conditions noted are these: read-out: IC50 (nM) SW-620. The method, then:
as §1, §2, §3

The test system of test [3] is breast cancer (MDA-MB-231). In words: Anticancer activity assay (WST-8 cell growth), MDA-MB-231. The conditions noted are these: read-out: IC50 (nM) MDA-MB-231. The method, then: as §1, §2, §3
In a further test the test system is breast cancer (MCF-7). Kind of test: Anticancer activity assay (WST-8 cell growth), MCF-7. The settings on record: read-out: IC50 (nM) MCF-7. How it is done: as §1, §2, §3
Setting [4] is: A-431, 96 h, read-out: IC50 (nM) A-431.

Where two headings read alike, the source gives them in different places.

For orientation: IC50 means the concentration at which inhibition is half-maximal. With `CC[C@H](C)[C@@H]([C@@H](CC(=O)N1C[C@H](OC)C[C@H]1[C@H](OC)[C@@H](C)C(=O)NCC(=O)c1ccc(OC)cc1)OC)N(C)C(=O)[C@@H](NC(=O)[C@@H](NC)C(C)C)C(C)C` (stereo in doubt) [Compound I-5, (2S)—N-((3R,4S)-3-methoxy-1-((2R,4R)-4-methoxy-2-((1R,2R)-1-methoxy-3-((2-(4-methoxyphenyl)-2-oxoethyl)amino)-2-methyl-3-oxopropyl)pyrrolidin-1-yl)-5-methyl-1-oxoheptan-4-yl)-N,3-dimethyl-2-((S)-3-methyl-2-(methylamino)butaneamido)butanamide], the IC50 worked out at 0.53 nM with breast cancer (BT-474) (BT-474, 96 h) and 61.2 nM in test [1] (setting [4]).

Consider `CC[C@H](C)[C@@H]([C@@H](CC(=O)N1C[C@H](OC)C[C@@H]1[C@H](OC)[C@@H](C)C(=O)NCCc1ccc(F)cc1)OC)N(C)C(=O)[C@@H](NC(=O)[C@@H](NC)C(C)C)C(C)C` [Compound I-3, (S)—N-((3R,4S,5S)-1-((2R,4R)-2-((1R,2R)-3-((4-fluorophenethyl)amino)-1-methoxy-2-methyl-3-oxopropyl)-4-methoxypyrrolidin-1-yl)-3-methoxy-5-methyl-1-oxoheptan-4-yl)-N,3-dimethyl-2-((S)-3-methyl-2-(methylamino)butaneamido)butanamide], for which the IC50 with breast cancer (BT-474) (BT-474, 96 h) amounted to 1.1 nM; in test [1] (setting [4]), 37.9 nM.

As for `CC[C@H](C)[C@@H]([C@@H](CC(=O)N1C[C@H](OC)CC1[C@H](OC)[C@@H](C)C(=O)NCCc1cc(F)c(Cl)cc1Cl)OC)N(C)C(=O)[C@@H](NC(=O)[C@@H](NC)C(C)C)C(C)C` (stereo partly shown) [Compound I-4], the IC50 in the test on breast cancer (BT-474) (BT-474, 96 h) was found to be 2.44 nM; in test [1] (setting [4]) it was 21.1 nM.

For the compound `CC[C@H](C)[C@@H]([C@@H](CC(=O)N1C[C@@H](OC)C[C@H]1[C@H](OC)[C@@H](C)C(=O)NCCc1ccccc1)OC)N(C)C(=O)[C@@H](NC(=O)[C@@H](NC)C(C)C)C(C)C` [Compound I-33, (2S)—N-((3R,4S)-3-methoxy-1-((2S,45)-4-methoxy-2-((1R,2R)-1-methoxy-2-methyl-3-oxo-3-(phenethylamino)propyl)pyrrolidin-1-yl)-5-methyl-1-oxoheptan-4-yl)-N,3-dimethyl-2-((S)-3-methyl-2-(methylamino)butaneamido)butanamide], the IC50 in the test with breast cancer (BT-474) (BT-474, 96 h) is 0.68 nM; in test [2] (Homo sapiens, NCI-H460, 96 h), 9.4 nM; with colon cancer (HT-29) (Homo sapiens, HT-29, 96 h) it was 2.82 nM; in the test on colon cancer (SW-620) (Homo sapiens, SW-620, 96 h), 5.49 nM; in test [3] (Homo sapiens, MDA-MB-231, 96 h) it was 2.23 nM; with breast cancer (MCF-7) (Homo sapiens, MCF7, 96 h), 1.82 nM.

Take `CC[C@H](C)[C@@H]([C@@H](CC(=O)N1C[C@H](OC)C[C@H]1[C@H](OC)[C@@H](C)C(=O)NCC(O)c1ccccc1)OC)N(C)C(=O)[C@@H](NC(=O)[C@@H](NC)C(C)C)C(C)C` (stereo partly drawn) [Compound I-35, (2S)—N-((3R,4S)-1-((2S,4R)-2-((1R,2R)-3-(2-(2-hydroxy-2-phenylethyl)amino)-1-methoxy-2-methyl-3-oxopropyl)-4-methoxypyrrolidin-1-yl)-3-methoxy-5-methyl-1-oxoheptan-4-yl)-N,3-dimethyl-2-((S)-3-methyl-2-(methylamino)butaneamido)butanamide]: the IC50 in the test with breast cancer (BT-474) (BT-474, 96 h) came out at 0.23 nM; in test [2] (Homo sapiens, NCI-H460, 96 h) it was 1.5 nM; with colon cancer (HT-29) (Homo sapiens, HT-29, 96 h), 4.2 nM; in the test with colon cancer (SW-620) (Homo sapiens, SW-620, 96 h), 2.1 nM.

`COc1cccc2c1C(=O)c1c(O)c3c(c(O)c1C2=O)C[C@@](O)(C(=O)CO)C[C@@H]3O[C@H]1C[C@H](N)[C@H](O)[C@H](C)O1` [Doxorubcin, reference compound]: the IC50 came to 150 nM in test [2] (NCI-H460 cells, 4 day incubation, WST-8); 1.81 nM with colon cancer (HT-29) (HT-29 cells, 4 day incubation, WST-8); 290 nM in the test on colon cancer (SW-620) (SW-620 cells, 4 day incubation, WST-8); 850 nM in test [3] (MDA-MB-231 cells, 4 day incubation, WST-8); 460 nM with breast cancer (MCF-7) (MCF-7 cells, 4 day incubation, WST-8).

On to `CC(=O)O[C@H]1C(=O)[C@@]2(C)[C@H]([C@H](OC(=O)c3ccccc3)[C@]3(O)C[C@H](OC(=O)[C@H](O)[C@@H](NC(=O)c4ccccc4)c4ccccc4)C(C)=C1C3(C)C)[C@]1(OC(C)=O)CO[C@@H]1C[C@@H]2O` [Paclitaxel, reference compound], for which the IC50 in the test with breast cancer (BT-474) (96 h, BT-474 cells, 4 day incubation, WST-8) turned out to be 14.4 nM; in test [1] (96 h, A-431 cells, 4 day incubation, WST-8, read-out: IC50 (nM) A-431), 442 nM; in test [2] (Homo sapiens, 96 h, NCI-H460 cells, 4 day incubation, WST-8) it was 26.8 nM; in the test on colon cancer (HT-29) (Homo sapiens, 96 h, HT-29 cells, 4 day incubation, WST-8), 19.5 nM; in the test with colon cancer (SW-620) (Homo sapiens, 96 h, SW-620 cells, 4 day incubation, WST-8) it was 26.8 nM; in test [3] (Homo sapiens, 96 h, MDA-MB-231 cells, 4 day incubation, WST-8), 90 nM. The IC50 with breast cancer (MCF-7) (Homo sapiens, MCF7, 96 h, MCF-7 cells, 4 day incubation, WST-8) is 27.1 nM.
